Each structure is given as a SMILES string.

This is an account of results in ChEMBL document CHEMBL1154287, “Phenylaminopyrimidines as inhibitors of Janus kinases (JAKs)” (Bioorg Med Chem Lett, 2009).

Data set [1] has as its system BaF3. The experiment in a line: cells. Particulars: Mus musculus, BaF3, 72 h.
Description: Antiproliferative activity against mouse BAF3 cells expressing TEL-JAK2 kinase after 72 hrs by alamar blue assay
The target in data set [2] is T1, Tyrosine-protein kinase JAK3 (Homo sapiens, UniProt P52333).
T1 sequence (P52333 whole entry): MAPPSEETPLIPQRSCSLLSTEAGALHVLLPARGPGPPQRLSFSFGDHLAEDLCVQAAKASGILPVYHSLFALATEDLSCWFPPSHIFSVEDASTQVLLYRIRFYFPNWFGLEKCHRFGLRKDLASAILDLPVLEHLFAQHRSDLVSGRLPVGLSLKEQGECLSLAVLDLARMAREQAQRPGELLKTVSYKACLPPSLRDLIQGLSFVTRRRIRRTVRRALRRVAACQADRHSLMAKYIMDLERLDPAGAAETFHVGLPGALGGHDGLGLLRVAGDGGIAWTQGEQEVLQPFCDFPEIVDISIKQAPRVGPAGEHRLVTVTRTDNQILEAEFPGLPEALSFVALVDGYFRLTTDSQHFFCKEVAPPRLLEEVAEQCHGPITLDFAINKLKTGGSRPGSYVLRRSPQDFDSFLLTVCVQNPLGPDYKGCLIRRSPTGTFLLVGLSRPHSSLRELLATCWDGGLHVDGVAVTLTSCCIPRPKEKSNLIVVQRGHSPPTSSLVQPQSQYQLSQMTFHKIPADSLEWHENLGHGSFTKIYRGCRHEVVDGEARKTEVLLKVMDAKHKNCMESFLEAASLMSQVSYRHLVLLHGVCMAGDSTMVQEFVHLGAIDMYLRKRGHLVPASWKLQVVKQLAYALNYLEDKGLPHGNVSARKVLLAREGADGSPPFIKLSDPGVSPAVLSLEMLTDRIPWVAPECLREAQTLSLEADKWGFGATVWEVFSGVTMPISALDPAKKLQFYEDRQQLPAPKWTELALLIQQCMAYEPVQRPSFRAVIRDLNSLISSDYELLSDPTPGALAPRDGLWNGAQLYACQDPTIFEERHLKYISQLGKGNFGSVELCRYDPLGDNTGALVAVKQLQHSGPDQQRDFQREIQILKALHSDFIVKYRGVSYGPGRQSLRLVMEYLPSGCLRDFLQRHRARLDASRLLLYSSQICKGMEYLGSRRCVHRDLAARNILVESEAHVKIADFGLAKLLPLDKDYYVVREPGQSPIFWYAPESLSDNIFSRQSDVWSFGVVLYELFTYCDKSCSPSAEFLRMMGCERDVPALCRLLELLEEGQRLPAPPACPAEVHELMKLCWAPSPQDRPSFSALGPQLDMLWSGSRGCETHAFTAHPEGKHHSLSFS
Description: Inhibition of GST-tagged JAK3 kinase

Data set [3] has as its target Tyrosine-protein kinase JAK2 (Homo sapiens, UniProt O60674).
Description: Inhibition of GST-tagged JAK2 kinase
The subject of data set [4] is BaF3. The experiment in a line: cells. To be noted: Mus musculus, BaF3, 72 h. This is another data set of the same source.
Description: Antiproliferative activity against mouse BAF3 cells expressing TEL-JAK3 kinase after 72 hrs by alamar blue assay
The next data set can be described thus: cells. Particulars: Mus musculus, CTLL-2, 72 h.
Data set [5] can be described thus: Oral bioavailability in Sprague-Dawley rat at 21 mg/kg. The class given is ADME, organism-based. Particulars: in vivo.
Data set [6] is described as follows: in vitro. To be noted: human, Caco-2.
Description: Apparent permeability from apical to basolateral side in human Caco-2 cells
Data set [7] in a line: Apparent permeability from basolateral to apical side in human Caco-2 cells. The class given is ADME, cell-based. A general note: Caco-2 cells form a polarised layer with tight junctions and transporters.
The nature of data set [8]: in vitro. To be noted: human, Caco-2. This is another data set of the same source.
Description: Ratio of permeability from apical to basolateral side over basolateral to apical side in human Caco-2 cells
A short description of data set [9]: Cmax in Sprague-Dawley rat at 21 mg/kg. The class given is ADME, organism-based. More on the design: dose 21 mg/kg. To be noted: in vivo.
Data set [10] is described as follows: Blood clearance in Sprague-Dawley rat at 21 mg/kg, iv. The class given is ADME, organism-based. More on the design: dose 21 mg/kg, route intravenous.
A further data set deals with K562. The experiment in a line: cells. Particulars: Homo sapiens, K562, 72 h.
Data set [11] can be described thus: Tmax in Sprague-Dawley rat at 18 mg/kg, po. More on the design: dose 18 mg/kg, route oral. To be noted: in vivo. The class given is ADME, organism-based.
The nature of data set [12]: Cmax in Sprague-Dawley rat at 18 mg/kg, po. The class given is ADME, organism-based. More on the design: dose 18 mg/kg, route oral. To be noted: in vivo.
Data set [13] in a line: Blood clearance in Sprague-Dawley rat at 18 mg/kg, po. The class given is ADME, organism-based. Also on record: dose 18 mg/kg, route oral.
The nature of data set [14]: Apparent half life in Sprague-Dawley rat at 18 mg/kg, po. The class given is ADME, organism-based. Also on record: dose 18 mg/kg, route oral. To be noted: in vivo.
The test system of data set [15] is BaF3. Description: Antiproliferative activity against mouse BAF3 cells expressing wild type JAK2 kinase after 72 hrs by alamar blue assay in presence of IL-3. The class given is functional, cell-based. To be noted: BaF3, 72 h. Background: Alamar Blue is a resazurin reagent that responds to reducing activity.
Data set [16] is described as follows: Antiproliferative activity against human SET2 cells expressing JAK2 V617F mutant kinase after 72 hrs by alamar blue assay. The class given is functional, cell-based. Particulars: SET-2, 72 h.

Sequence of Tyrosine-protein kinase JAK2 (O60674 whole entry): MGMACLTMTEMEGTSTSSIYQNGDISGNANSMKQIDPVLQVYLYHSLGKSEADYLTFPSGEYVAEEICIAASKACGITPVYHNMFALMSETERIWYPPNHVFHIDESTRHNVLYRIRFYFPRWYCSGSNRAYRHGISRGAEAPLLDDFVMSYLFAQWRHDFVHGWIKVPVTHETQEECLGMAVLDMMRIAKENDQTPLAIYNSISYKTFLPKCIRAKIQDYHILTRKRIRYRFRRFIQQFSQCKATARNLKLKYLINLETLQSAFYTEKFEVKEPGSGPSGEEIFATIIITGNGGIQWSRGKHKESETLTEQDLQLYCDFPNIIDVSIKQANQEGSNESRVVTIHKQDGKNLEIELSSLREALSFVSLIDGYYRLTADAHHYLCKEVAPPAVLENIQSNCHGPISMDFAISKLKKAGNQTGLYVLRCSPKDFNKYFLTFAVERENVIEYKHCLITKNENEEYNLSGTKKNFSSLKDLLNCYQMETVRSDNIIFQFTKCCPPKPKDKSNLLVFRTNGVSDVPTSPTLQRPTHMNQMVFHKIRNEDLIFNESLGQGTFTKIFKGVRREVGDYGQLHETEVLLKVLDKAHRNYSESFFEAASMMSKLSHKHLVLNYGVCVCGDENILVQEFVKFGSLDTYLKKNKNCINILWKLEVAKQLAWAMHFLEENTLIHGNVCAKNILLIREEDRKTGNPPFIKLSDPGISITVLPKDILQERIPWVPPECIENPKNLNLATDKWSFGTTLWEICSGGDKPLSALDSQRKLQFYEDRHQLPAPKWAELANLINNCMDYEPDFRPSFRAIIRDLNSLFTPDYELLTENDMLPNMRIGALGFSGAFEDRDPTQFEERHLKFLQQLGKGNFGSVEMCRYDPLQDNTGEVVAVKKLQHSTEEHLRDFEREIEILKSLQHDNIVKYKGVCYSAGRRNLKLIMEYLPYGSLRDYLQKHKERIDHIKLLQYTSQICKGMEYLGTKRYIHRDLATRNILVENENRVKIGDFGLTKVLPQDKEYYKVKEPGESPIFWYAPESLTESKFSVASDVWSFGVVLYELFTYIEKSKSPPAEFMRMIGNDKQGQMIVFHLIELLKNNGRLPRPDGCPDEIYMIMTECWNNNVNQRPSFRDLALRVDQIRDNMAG
Description for K562: Antiproliferative activity against human K562 cells after 72 hrs by alamar blue assay

Take `N#CCNC(=O)c1ccc(-c2ccnc(Nc3ccc(N4CCOCC4)c(F)c3)n2)cc1`: the IC50 in the data set on BaF3 [1] was found to be 1140 nM; in data set [2] it was 274 nM; in data set [3], 116 nM; with BaF3 [4], 3280 nM; in the data set “cells”, 1260 nM.
In the same order, the values of `N#CCNC(=O)c1ccc(-c2ccnc(Nc3ccc(CN4CCOCC4)cc3)n2)cc1` are 2800 nM, 1450 nM, 163 nM, 9500 nM and 5070 nM.
In the case of `CS(=O)(=O)Nc1ccc(-c2ccnc(Nc3ccc(CN4CCS(=O)(=O)CC4)cc3)n2)cc1`, the bioavailability in [5] was 5.4%. Further, the IC50 in the data set on BaF3 [1] was found to be 802 nM; in [2], 587 nM; in data set [3], 2 nM; in the data set on BaF3 [4], 3560 nM; in the data set “cells” it was 2220 nM. In addition, the apparent permeability from apical to basolateral (Papp A→B) in the data set “in vitro [6]” worked out at 4.6 ×10⁻⁶ cm/s. Moreover, in [7], the Papp B→A came out at 56.4 ×10⁻⁶ cm/s. Moreover, the efflux ratio in the data set “in vitro [8]” is 12.3. This molecule showed a Cmax in data set [9] of 0.27 µM. The molecule also returned a clearance in [10] of 36.6 mL/min/kg.
As for `CCN1CCN(Cc2ccc(Nc3nccc(-c4ccc(C(=O)NCC#N)cc4)n3)cc2)CC1`, the IC50 in the data set on BaF3 [1] turned out to be 423 nM; in data set [2], 152 nM; in [3], 47 nM; in the data set on BaF3 [4] it was 1230 nM; in “cells”, 1850 nM.
For the molecule `OC[C@@H](O)[C@@H](O)[C@H](O)[C@H](O)CO` [MANNITOL], the Papp A→B in “in vitro [6]” is 0.7 ×10⁻⁶ cm/s. In data set [7], the basolateral-to-apical permeability (Papp B→A) turned out to be 1.1 ×10⁻⁶ cm/s. For the same molecule, the efflux ratio in the data set “in vitro [8]” was 1.5.
Take `N#CCNC(=O)c1ccc(-c2ccnc(Nc3ccc(N4CCOCC4)cc3)n2)cc1` [MOMELOTINIB]: the concentration for half-maximal inhibition (IC50) in the data set on K562 was greater than 20000 nM; in the data set on BaF3 [1] it was 798 nM; with BaF3 [4] it was 2420 nM; in “cells” it was 1250 nM; with BaF3 [15], 1430 nM; in data set [16] it was 232 nM. Further, in data set [11], the time to peak (Tmax) is 4 h. The same molecule gave a Papp A→B in “in vitro [6]” of 30.4 ×10⁻⁶ cm/s. In [12], this molecule returned a maximum concentration (Cmax) of 40.4 µM. This molecule registered a CL/F in data set [13] of 6.3 mL/min/kg. Also, the apparent permeability from basolateral to apical (Papp B→A) in data set [7] came out at 27.3 ×10⁻⁶ cm/s. For the same molecule, in data set [14], the half-life was 2.4 h.
As for `CC(C)NCC(O)COc1cccc2ccccc12` (centres undefined) [PROPRANOLOL], the apical-to-basolateral permeability (Papp A→B) in the data set “in vitro [6]” came to 38.7 ×10⁻⁶ cm/s. The Papp B→A in data set [7] was 48.8 ×10⁻⁶ cm/s. The efflux ratio in “in vitro [8]” came to 1.3.

As usually defined, the IC50 is the point on the concentration scale where inhibition reaches its midpoint. For orientation: bioavailability means dose-corrected exposure relative to a reference, in per cent. The low end stands for poor availability, the high end for good availability. What is called Papp A→B is how fast a substance crosses the layer from the apical side. A word on the Papp B→A: it is how fast a substance crosses the layer from the basolateral side. As a reminder, the efflux ratio is the permeability from basolateral to apical divided by that in the opposite direction, in the common usage. As a reminder, the Cmax is the highest concentration seen after dosing. As usually defined, the clearance is the rate of elimination divided by the concentration. Lower therefore signals a low capacity for elimination. As a reminder, the Tmax is the time at which the peak concentration occurs. The term CL/F denotes clearance divided by bioavailability, as obtained after extravascular dosing. By half-life is commonly meant how long it takes for the measured level to halve.
